Source: PMC7413254 (Nature Communications, 2020)
Like-named read-outs stand apart in the source and are kept apart here.

Experiments:
non-expressing oocytes [1] = assay: cells; type: cell-based, Xenopus laevis; settings: Xenopus laevis, total [3H]CQ transport; for inhibition at 500 µM: [test solute] = 0.5 mM; for inhibition at 1000 µM: [test solute] = 1 mM; for inhibition at 2000 µM: [test solute] = 2 mM
In short: (§1)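 Using pH 5.5 ND96 at 27.5 °C, uptake is followed for 1.5 h, stopped with ice-cold buffer, and quantified as accumulated radioactivity per oocyte after SDS lysis.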

PfCRT^3D7 [2] = target: T1, PfCRT^3D7 (Plasmodium falciparum, UniProt Q8IBZ9); assay: cell-based; type: cell-based; settings: total [3H]CQ transport; for inhibition at 500 µM: [test solute] = 0.5 mM; for inhibition at 1000 µM: [test solute] = 1 mM; for inhibition at 2000 µM: [test solute] = 2 mM
In short: as §1

PfCRT^Dd2 [3] = target: T2, PfCRT^Dd2 (Plasmodium falciparum, UniProt Q9N623, A220S/I356T/K76T/M74I/N326S/N75E/Q271E/R371I); assay: [3H]CQ uptake into Xenopus oocytes, cis-inhibition by unlabelled solute; type: cell-based
In short: as §1

PfCRT^Ecu1110 [4] = target: T3, PfCRT^Ecu1110 (Plasmodium falciparum, UniProt Q9N623, A220S/I356L/K76T/N326D); assay: as above; type: cell-based
In short: as §1

non-expressing oocytes [5] = type: cell-based, Xenopus laevis; settings: total [3H]CQ transport; for Uptake of [3H]CQ (% non-expressing oocyte control), trans-stimulation: non-expressing oocytes, normalised to the oocyte type control; for Uptake of [3H]CQ (% PfCRTDd2 control), trans-stimulation, non-expressing oocytes: mean ± SEM, SEM
In short: (§2)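 Oocytes (ten per treatment, ≥4 independent frogs/days) were preloaded by injecting VF-6 in 25 nL ND96 at pH 5.0, 5.5, 6.0 or 7.0, or Na^+-free choline buffer, then uptake run 1.5 h, 27.5 °C, ND96 pH 5.5 by default. Internal concentrations assumed ~400 nL oocyte volume.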

PfCRT^3D7 [6] = target: T1, PfCRT^3D7; assay: cell-based; type: cell-based
In short: as §2

PfCRT^Dd2 [7] = target: T2, PfCRT^Dd2; assay: cell-based; type: cell-based; settings: […]; for activity at 45000 µM: [test solute]i = 45 mM (30 mM for some solutes due to solubility)
In short: as §2

PfCRT^Ecu1110 [8] = target: T3, PfCRT^Ecu1110; assay: cell-based; type: cell-based; settings: […]
In short: as §2

PfNT1 = target: T4, PfNT1 (Plasmodium falciparum, UniProt Q8IDM6); assay: cell-based; type: cell-based; settings: for activity at 5000 µM: total [3H]CQ transport
T4 construct: expressed in transfected cells; host or cells: Xenopus laevis oocytes (stage V-VI), cRNA-injected
In short: as §2

PfCRT [9] = assay: Test of solutes as potential co-substrates for influx of VF-6 via PfCRT into the oocyte; type: cell-based, Plasmodium falciparum; parameters: key: X: Compounds that have been tested as potential co-substrates but are not required for influx of VF-6 via PfCRT into the oocyte; settings: X = tested
PfCRT [10] = assay: Potential co-substrates tested for influx of VF-6 via PfCRT into the oocyte; type: cell-based, Plasmodium falciparum; parameters: key: X: Compounds that have been tested as potential co-substrates but are not required for influx of VF-6 via PfCRT into the oocyte
[11] = Oocyte, mean ± SEM, SEM, read-out: Uptake of [3H]CQ (% PfCRTDd2 control), cis-inhibition, non-expressing oocytes
[12] = non-expressing oocytes, normalised to the oocyte type control, read-out: Uptake of [3H]CQ (% non-expressing oocyte control), cis-inhibition
[13] = PfCRT3D7 oocytes, normalised to the oocyte type control, read-out: Uptake of [3H]CQ (% PfCRT3D7 control), cis-inhibition
[14] = mean ± SEM, SEM, read-out: Uptake of [3H]CQ (% PfCRTDd2 control), cis-inhibition, PfCRT3D7
[15] = read-out: PfCRT-mediated [3H]CQ transport, cis-inhibition (% PfCRTDd2 control)
[16] = read-out: Uptake of [3H]CQ (% PfCRTDd2 control), cis-inhibition
[17] = read-out: Uptake of [3H]CQ (% PfCRTDd2 control), cis-inhibition, PfCRTDd2, SEM
[18] = read-out: [3H]CQ transport (% PfCRTDd2 control), cis-inhibition, PfCRTDd2, SEM
[19] = read-out: PfCRT-mediated [3H]CQ transport, cis-inhibition (% PfCRTEcu1110 control)
[20] = read-out: Uptake of [3H]CQ (% PfCRTDd2 control), cis-inhibition, PfCRTEcu1110, SEM
[21] = read-out: Uptake of [3H]CQ (% PfCRTEcu1110 control), cis-inhibition
[22] = read-out: [3H]CQ transport (% PfCRTEcu1110 control), cis-inhibition, PfCRTEcu1110, SEM

T1 sequence (Q8IBZ9 59-398): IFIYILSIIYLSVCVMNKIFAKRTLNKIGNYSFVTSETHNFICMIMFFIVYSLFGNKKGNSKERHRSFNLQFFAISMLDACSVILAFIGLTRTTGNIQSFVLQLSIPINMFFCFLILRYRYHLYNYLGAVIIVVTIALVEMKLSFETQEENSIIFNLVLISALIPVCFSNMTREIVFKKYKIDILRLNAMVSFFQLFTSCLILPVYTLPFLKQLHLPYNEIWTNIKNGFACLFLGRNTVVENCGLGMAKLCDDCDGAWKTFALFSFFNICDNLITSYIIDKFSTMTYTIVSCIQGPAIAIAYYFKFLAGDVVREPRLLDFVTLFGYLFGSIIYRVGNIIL
T4 sequence (Q8IDM6 whole entry): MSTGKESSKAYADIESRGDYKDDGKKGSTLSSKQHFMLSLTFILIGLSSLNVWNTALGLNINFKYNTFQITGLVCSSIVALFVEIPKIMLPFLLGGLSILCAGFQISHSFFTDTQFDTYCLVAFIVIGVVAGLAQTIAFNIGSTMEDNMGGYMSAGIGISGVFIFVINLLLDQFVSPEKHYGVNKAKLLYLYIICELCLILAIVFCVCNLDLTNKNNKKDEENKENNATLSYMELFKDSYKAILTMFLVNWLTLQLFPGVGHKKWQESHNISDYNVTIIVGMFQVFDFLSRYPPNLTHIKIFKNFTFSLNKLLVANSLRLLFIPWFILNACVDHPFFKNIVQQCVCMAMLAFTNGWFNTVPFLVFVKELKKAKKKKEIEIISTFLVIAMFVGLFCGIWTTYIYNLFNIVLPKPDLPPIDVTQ
T3 sequence (Q9N623 whole entry A220S/I356L/K76T/N326D): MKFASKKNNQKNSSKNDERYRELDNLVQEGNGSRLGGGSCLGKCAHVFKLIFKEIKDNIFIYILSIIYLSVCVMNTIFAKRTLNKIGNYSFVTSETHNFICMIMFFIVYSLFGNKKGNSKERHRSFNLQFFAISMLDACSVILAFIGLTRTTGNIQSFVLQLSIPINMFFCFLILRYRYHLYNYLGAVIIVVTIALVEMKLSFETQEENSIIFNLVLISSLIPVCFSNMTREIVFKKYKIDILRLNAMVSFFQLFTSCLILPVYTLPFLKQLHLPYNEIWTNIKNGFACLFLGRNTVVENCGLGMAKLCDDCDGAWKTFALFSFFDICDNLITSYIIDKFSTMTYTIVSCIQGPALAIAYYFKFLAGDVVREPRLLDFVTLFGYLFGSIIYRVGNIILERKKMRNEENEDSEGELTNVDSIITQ
T2 sequence (Q9N623 whole entry A220S/I356T/K76T/M74I/N326S/N75E/Q271E/R371I): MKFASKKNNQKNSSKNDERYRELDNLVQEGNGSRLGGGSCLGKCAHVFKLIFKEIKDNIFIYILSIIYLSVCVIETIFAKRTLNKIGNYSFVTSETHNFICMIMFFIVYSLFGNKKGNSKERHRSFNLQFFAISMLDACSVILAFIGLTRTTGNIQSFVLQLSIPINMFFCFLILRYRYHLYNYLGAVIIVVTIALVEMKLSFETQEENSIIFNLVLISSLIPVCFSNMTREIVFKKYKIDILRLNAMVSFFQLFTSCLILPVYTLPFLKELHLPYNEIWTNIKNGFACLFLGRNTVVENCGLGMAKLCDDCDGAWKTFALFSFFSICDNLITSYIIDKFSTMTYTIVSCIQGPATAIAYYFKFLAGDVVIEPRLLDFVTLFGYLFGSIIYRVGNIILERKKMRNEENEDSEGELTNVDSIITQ

Structure (SMILES): N[C@@H](CS)C(=O)O [L-cysteine]
- inhibition at 500 µM (non-expressing oocytes [1]; [11]): 2.1 ± 0.08%
- inhibition at 1000 µM (non-expressing oocytes [1]; [11]): 3.4 ± 0.01%
- inhibition at 2000 µM (non-expressing oocytes [1]; [11]): 2.3 ± 0.1%
- inhibition at 500 µM (non-expressing oocytes [1]; [12]): 99 ± 5.3%
- inhibition at 1000 µM (non-expressing oocytes [1]; [12]): 100 ± 4.6%
- inhibition at 2000 µM (non-expressing oocytes [1]; [12]): 99 ± 3.5%
- inhibition at 500 µM (PfCRT^3D7 [2]; [13]): 99 ± 3.2%
- inhibition at 1000 µM (PfCRT^3D7 [2]; [13]): 100 ± 3.6%
- inhibition at 2000 µM (PfCRT^3D7 [2]; [13]): 99 ± 4.2%
- inhibition at 500 µM (PfCRT^3D7 [2]; [14]): 3.4 ± 0.05%
- inhibition at 1000 µM (PfCRT^3D7 [2]; [14]): 2.5 ± 0.05%
- inhibition at 2000 µM (PfCRT^3D7 [2]; [14]): 3.1 ± 0.08%
- inhibition at 500 µM (PfCRT^Dd2 [3]; [15]): 94 ± 4.1%
- inhibition at 1000 µM (PfCRT^Dd2 [3]; [15]): 95 ± 3.6%
- inhibition at 2000 µM (PfCRT^Dd2 [3]; [15]): 95 ± 2.8%
- inhibition at 500 µM (PfCRT^Dd2 [3]; [16]): 97 ± 9.2%
- inhibition at 2000 µM (PfCRT^Dd2 [3]; [16]): 97 ± 3.1%
- inhibition at 500 µM (PfCRT^Dd2 [3]; [17]): 97 ± 9.2%
- inhibition at 1000 µM (PfCRT^Dd2 [3]; [17]): 96 ± 3.5%
- inhibition at 2000 µM (PfCRT^Dd2 [3]; [17]): 97 ± 3.1%
- inhibition at 1000 µM (PfCRT^Dd2 [3]; [18]): 95 ± 3.6%
- inhibition at 2000 µM (PfCRT^Dd2 [3]; [18]): 95 ± 2.8%
- inhibition at 500 µM (PfCRT^Ecu1110 [4]; [19]): 94 ± 1.6%
- inhibition at 1000 µM (PfCRT^Ecu1110 [4]; [19]): 87 ± 2.6%
- inhibition at 2000 µM (PfCRT^Ecu1110 [4]; [19]): 98 ± 4.5%
- inhibition at 500 µM (PfCRT^Ecu1110 [4]; [20]): 31 ± 1%
- inhibition at 1000 µM (PfCRT^Ecu1110 [4]; [20]): 29 ± 1.5%
- inhibition at 2000 µM (PfCRT^Ecu1110 [4]; [20]): 33 ± 1.4%
- inhibition at 500 µM (PfCRT^Ecu1110 [4]; [21]): 95 ± 4.2%
- inhibition at 1000 µM (PfCRT^Ecu1110 [4]; [21]): 89 ± 5.5%
- inhibition at 2000 µM (PfCRT^Ecu1110 [4]; [21]): 100 ± 7.1%
- inhibition at 500 µM (PfCRT^Ecu1110 [4]; [22]): 28 ± 1.1%
- inhibition at 1000 µM (PfCRT^Ecu1110 [4]; [22]): 26 ± 1.5%
- inhibition at 2000 µM (PfCRT^Ecu1110 [4]; [22]): 30 ± 1.7%
- Uptake of [3H]CQ (% non-expressing oocyte control), trans-stimulation (non-expressing oocytes [5]; [test solute]i = 5 mM): 98 ± 2.2 % non-expressing oocyte control
- Uptake of [3H]CQ (% non-expressing oocyte control), trans-stimulation (non-expressing oocytes [5]; [test solute]i = 45 mM (30 mM for some solutes due to solubility)): 100 ± 4.2 % non-expressing oocyte control
- Uptake of [3H]CQ (% PfCRTDd2 control), trans-stimulation, non-expressing oocytes (non-expressing oocytes [5]; [test solute]i = 5 mM (intracellular)): 3.1 ± 0.07 % PfCRTDd2 control
- Uptake of [3H]CQ (% PfCRTDd2 control), trans-stimulation, non-expressing oocytes (non-expressing oocytes [5]; [test solute]i = 45 mM (intracellular; 30 mM for some solutes due to solubility)): 2.2 ± 0.03 % PfCRTDd2 control
- activity at 5000 µM (PfCRT^3D7 [6]; PfCRT3D7 oocytes, [test solute]i = 5 mM, total [3H]CQ transport, normalised to the oocyte type control, read-out: Uptake of [3H]CQ (% PfCRT3D7 control), trans-stimulation): 100 ± 2.4%
- [3H]CQ transport (% PfCRT3D7 control), trans-stimulation, PfCRT3D7 (PfCRT^3D7 [6]; SEM): 0.3 ± 0.02 % PfCRT3D7 control
- activity at 5000 µM (PfCRT^3D7 [6]; [test solute]i = 5 mM (intracellular), PfCRT3D7 oocytes, normalised to oocyte type control, read-out: PfCRT-mediated [3H]CQ transport, trans-stimulation (% PfCRT3D7 control)): 98 ± 3.1%
- activity at 45000 µM (PfCRT^3D7 [6]; SEM, read-out: Uptake of [3H]CQ (% PfCRTDd2 control), trans-stimulation, PfCRT3D7): 3.2 ± 0.08%
- activity at 45000 µM (PfCRT^3D7 [6]; read-out: PfCRT-mediated [3H]CQ transport, trans-stimulation (% PfCRT3D7 control)): 94 ± 4.4%
- activity at 45000 µM (PfCRT^3D7 [6]; read-out: Uptake of [3H]CQ (% PfCRT3D7 control), trans-stimulation): 96 ± 3.5%
- activity at 5000 µM (PfCRT^3D7 [6]; total [3H]CQ transport, [test solute]i = 5 mM (intracellular), mean ± SEM, SEM, read-out: Uptake of [3H]CQ (% PfCRTDd2 control), trans-stimulation, PfCRT3D7): 3.3 ± 0.05%
- activity at 5000 µM (PfCRT^Dd2 [7]; pH 5.5, read-out: PfCRT-mediated [3H]CQ transport, trans-stimulation (% PfCRTDd2 control), [test solute]i = 5 mM (intracellular), PfCRTDd2 oocytes, normalised to oocyte type control): 97 ± 2.6%
- activity at 5000 µM (PfCRT^Dd2 [7]; pH 5.5, read-out: Uptake of [3H]CQ (% PfCRTDd2 control), trans-stimulation, PfCRTDd2, total [3H]CQ transport, [test solute]i = 5 mM (intracellular), mean ± SEM, SEM): 99 ± 3.2%
- activity at 5000 µM (PfCRT^Dd2 [7]; pH 5.5, read-out: Uptake of [3H]CQ (% PfCRTDd2 control), trans-stimulation, PfCRTDd2 oocytes, [test solute]i = 5 mM, total [3H]CQ transport, normalised to the oocyte type control): 99 ± 3.2%
- activity at 45000 µM (PfCRT^Dd2 [7]; pH 5.5, read-out: Uptake of [3H]CQ (% PfCRTDd2 control), trans-stimulation, PfCRTDd2 oocytes, total [3H]CQ transport, normalised to the oocyte type control): 101 ± 3.7%
- activity at 5000 µM (PfCRT^Dd2 [7]; pH 5.5, read-out: [3H]CQ transport (% PfCRTDd2 control), trans-stimulation, PfCRTDd2, trans-stimulation, [test solute]i = 5 mM (injected), PfCRT-mediated component (background subtracted), mean ± SEM, SEM): 97 ± 2.6%
- activity at 45000 µM (PfCRT^Dd2 [7]; pH 5.5, read-out: [3H]CQ transport (% PfCRTDd2 control), trans-stimulation, PfCRTDd2, trans-stimulation, PfCRT-mediated component (background subtracted), mean ± SEM, SEM): 99 ± 4.5%
- activity at 5000 µM (PfCRT^Ecu1110 [8]; pH 5.5, read-out: PfCRT-mediated [3H]CQ transport, trans-stimulation (% PfCRTEcu1110 control), [test solute]i = 5 mM (intracellular), PfCRTEcu1110 oocytes, normalised to oocyte type control): 95 ± 3%
- activity at 5000 µM (PfCRT^Ecu1110 [8]; pH 5.5, read-out: Uptake of [3H]CQ (% PfCRTEcu1110 control), trans-stimulation, PfCRTEcu1110 oocytes, [test solute]i = 5 mM, total [3H]CQ transport, normalised to the oocyte type control): 97 ± 4.2%
- activity at 45000 µM (PfCRT^Ecu1110 [8]; pH 5.5, read-out: Uptake of [3H]CQ (% PfCRTEcu1110 control), trans-stimulation, PfCRTEcu1110 oocytes, [test solute]i = 45 mM (30 mM for some solutes due to solubility), total [3H]CQ transport, normalised to the oocyte type control): 100 ± 3.5%
- activity at 5000 µM (PfCRT^Ecu1110 [8]; read-out: Uptake of [3H]CQ (% PfCRTDd2 control), trans-stimulation, PfCRTEcu1110, total [3H]CQ transport, [test solute]i = 5 mM (intracellular), mean ± SEM, SEM): 35 ± 1.4%
- activity at 45000 µM (PfCRT^Ecu1110 [8]; read-out: Uptake of [3H]CQ (% PfCRTDd2 control), trans-stimulation, PfCRTEcu1110, total [3H]CQ transport, [test solute]i = 45 mM (intracellular; 30 mM for some solutes due to solubility), mean ± SEM, SEM): 36 ± 2.7%
- activity at 5000 µM (PfNT1; PfNT1 oocytes, [test solute]i = 5 mM, normalised to the oocyte type control, read-out: Uptake of [3H]CQ (% PfNT1 control), trans-stimulation): 98 ± 3.7%
- activity at 45000 µM (PfNT1; SEM, read-out: Uptake of [3H]CQ (% PfCRTDd2 control), trans-stimulation, PfNT1): 2.6 ± 0.05%
- activity at 45000 µM (PfNT1; read-out: Uptake of [3H]CQ (% PfNT1 control), trans-stimulation): 99 ± 3.2%
- activity at 5000 µM (PfNT1; [test solute]i = 5 mM (intracellular), mean ± SEM, SEM, read-out: Uptake of [3H]CQ (% PfCRTDd2 control), trans-stimulation, PfNT1): 2.6 ± 0.08%
- Tested as potential co-substrate but not required for influx of VF-6 via PfCRT into the oocyte (PfCRT [9]): X
- Tested as potential co-substrate but not required for influx of VF-6 via PfCRT into the oocyte (PfCRT [10]): X
